Reference: the supplement of paper PMC10307832

How the values were obtained:
Assay in all cases: relative viability (nuclei count vs DMSO), 5 days (fraction); higher = more cells survive
LC-2-ad = test system: LC-2-ad
How it was run: (§1)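 Relative viability is defined as nuclei in treated wells over nuclei in vehicle wells. Duplicate plates were run and medians reported. Lung cancer cell lines in 1536-well plates were dosed by pin tool one day after seeding, with one drug or with a fixed anchor-drug dose plus five library-drug doses (not always all listed) in √10 steps, and nuclei were counted after 5 days.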

NCI-H2228 = test system: NCI-H2228
How it was run: as §1

NCI-H1734 = test system: NCI-H1734
How it was run: as §1

A-427 = test system: A-427
How it was run: as §1

RERF-LC-KJ = test system: RERF-LC-KJ
How it was run: as §1

HOP-62 = test system: HOP-62
How it was run: as §1

NCI-H1755 = test system: NCI-H1755
How it was run: as §1

NCI-H1915 = test system: NCI-H1915
How it was run: as §1

NCI-H2347 = test system: NCI-H2347
How it was run: as §1

HCC-15 = test system: HCC-15
How it was run: as §1

SW 1573 = test system: SW 1573
How it was run: as §1

SK-LU-1 = test system: SK-LU-1
How it was run: as §1

NCI-H2126 = test system: NCI-H2126
How it was run: as §1

NCI-H647 = test system: NCI-H647
How it was run: as §1

PC-3 [JPC-3] = test system: PC-3 [JPC-3]
How it was run: as §1

HCC-78 = test system: HCC-78
How it was run: as §1

NCI-H1975 = test system: NCI-H1975
How it was run: as §1

NCI-H358 = test system: NCI-H358
How it was run: as §1

NCI-H1792 = test system: NCI-H1792
How it was run: as §1

LXF-289 = test system: LXF-289
How it was run: as §1

Compound: CCN(CC)CCCCNc1ncc2cc(-c3cc(OC)cc(OC)c3)c(NC(=O)NC(C)(C)C)nc2n1 + Cc1nc(NC(=O)N2CCC[C@H]2C(N)=O)sc1-c1ccnc(C(C)(C)C(F)(F)F)c1 [Alpelisib] (partner 2 µM)
- relative viability (LC-2-ad; first compound 0.01 µM): 1.03
- relative viability (LC-2-ad; first compound 0.03162 µM): 0.918
- relative viability (LC-2-ad; first compound 0.1 µM): 0.942
- relative viability (LC-2-ad; first compound 0.3162 µM): 1.07
- relative viability (LC-2-ad; first compound 1 µM): 0.865
- relative viability (NCI-H2228; first compound 0.01 µM): 0.796
- relative viability (NCI-H2228; first compound 0.03162 µM): 0.755
- relative viability (NCI-H2228; first compound 0.1 µM): 0.913
- relative viability (NCI-H2228; first compound 0.3162 µM): 0.672
- relative viability (NCI-H2228; first compound 1 µM): 0.469
- relative viability (NCI-H1734; first compound 0.01 µM): 0.728
- relative viability (NCI-H1734; first compound 0.03162 µM): 0.69
- relative viability (NCI-H1734; first compound 0.1 µM): 0.713
- relative viability (NCI-H1734; first compound 0.3162 µM): 0.707
- relative viability (NCI-H1734; first compound 1 µM): 0.708
- relative viability (A-427; first compound 0.01 µM): 1.08
- relative viability (A-427; first compound 0.03162 µM): 1.08
- relative viability (A-427; first compound 0.1 µM): 1.1
- relative viability (A-427; first compound 0.3162 µM): 1.1
- relative viability (A-427; first compound 1 µM): 0.903
- relative viability (RERF-LC-KJ; first compound 0.01 µM): 1.08
- relative viability (RERF-LC-KJ; first compound 0.03162 µM): 0.919
- relative viability (RERF-LC-KJ; first compound 0.1 µM): 0.925
- relative viability (RERF-LC-KJ; first compound 0.3162 µM): 0.951
- relative viability (RERF-LC-KJ; first compound 1 µM): 0.826
- relative viability (HOP-62; first compound 0.01 µM): 0.82
- relative viability (HOP-62; first compound 0.03162 µM): 1.1
- relative viability (HOP-62; first compound 0.1 µM): 0.89
- relative viability (HOP-62; first compound 0.3162 µM): 1.04
- relative viability (HOP-62; first compound 1 µM): 0.726
- relative viability (NCI-H1755; first compound 0.01 µM): 0.983
- relative viability (NCI-H1755; first compound 0.03162 µM): 0.942
- relative viability (NCI-H1755; first compound 0.1 µM): 0.983
- relative viability (NCI-H1755; first compound 0.3162 µM): 1.06
- relative viability (NCI-H1755; first compound 1 µM): 0.927
- relative viability (NCI-H1915; first compound 0.01 µM): 1.07
- relative viability (NCI-H1915; first compound 0.03162 µM): 1.15
- relative viability (NCI-H1915; first compound 0.1 µM): 1.06
- relative viability (NCI-H1915; first compound 0.3162 µM): 1.14
- relative viability (NCI-H1915; first compound 1 µM): 1.07
- relative viability (NCI-H2347; first compound 0.01 µM): 1.08
- relative viability (NCI-H2347; first compound 0.03162 µM): 1.09
- relative viability (NCI-H2347; first compound 0.1 µM): 1.04
- relative viability (NCI-H2347; first compound 0.3162 µM): 1.09
- relative viability (NCI-H2347; first compound 1 µM): 1.11
- relative viability (HCC-15; first compound 0.01 µM): 1.03
- relative viability (HCC-15; first compound 0.03162 µM): 0.885
- relative viability (HCC-15; first compound 0.1 µM): 0.947
- relative viability (HCC-15; first compound 0.3162 µM): 0.966
- relative viability (HCC-15; first compound 1 µM): 0.868
- relative viability (SW 1573; first compound 0.01 µM): 0.727
- relative viability (SW 1573; first compound 0.03162 µM): 0.874
- relative viability (SW 1573; first compound 0.1 µM): 0.929
- relative viability (SW 1573; first compound 0.3162 µM): 0.796
- relative viability (SW 1573; first compound 1 µM): 0.782
- relative viability (SK-LU-1; first compound 0.01 µM): 1.06
- relative viability (SK-LU-1; first compound 0.03162 µM): 1.08
- relative viability (SK-LU-1; first compound 0.1 µM): 1.18
- relative viability (SK-LU-1; first compound 0.3162 µM): 1.21
- relative viability (SK-LU-1; first compound 1 µM): 0.65
- relative viability (NCI-H2126; first compound 0.01 µM): 0.736
- relative viability (NCI-H2126; first compound 0.03162 µM): 0.734
- relative viability (NCI-H2126; first compound 0.1 µM): 0.742
- relative viability (NCI-H2126; first compound 0.3162 µM): 0.815
- relative viability (NCI-H2126; first compound 1 µM): 0.75
- relative viability (NCI-H647; first compound 0.01 µM): 1.41
- relative viability (NCI-H647; first compound 0.03162 µM): 1.3
- relative viability (NCI-H647; first compound 0.1 µM): 1.31
- relative viability (NCI-H647; first compound 0.3162 µM): 1.13
- relative viability (NCI-H647; first compound 1 µM): 0.465
- relative viability (PC-3 [JPC-3]; first compound 0.01 µM): 1.03
- relative viability (PC-3 [JPC-3]; first compound 0.03162 µM): 1.02
- relative viability (PC-3 [JPC-3]; first compound 0.1 µM): 0.99
- relative viability (PC-3 [JPC-3]; first compound 0.3162 µM): 1.05
- relative viability (PC-3 [JPC-3]; first compound 1 µM): 1.07
- relative viability (HCC-78; first compound 0.03162 µM): 0.255
- relative viability (HCC-78; first compound 0.1 µM): 0.308
- relative viability (HCC-78; first compound 0.3162 µM): 0.348
- relative viability (HCC-78; first compound 1 µM): 0.303
- relative viability (NCI-H1975; first compound 0.01 µM): 0.699
- relative viability (NCI-H1975; first compound 0.03162 µM): 0.691
- relative viability (NCI-H1975; first compound 0.1 µM): 0.707
- relative viability (NCI-H1975; first compound 0.3162 µM): 0.787
- relative viability (NCI-H1975; first compound 1 µM): 0.451
- relative viability (NCI-H358; first compound 0.01 µM): 1.06
- relative viability (NCI-H358; first compound 0.03162 µM): 0.901
- relative viability (NCI-H358; first compound 0.1 µM): 1.01
- relative viability (NCI-H358; first compound 0.3162 µM): 0.848
- relative viability (NCI-H358; first compound 1 µM): 0.725
- relative viability (NCI-H1792; first compound 0.01 µM): 0.797
- relative viability (NCI-H1792; first compound 0.03162 µM): 0.674
- relative viability (NCI-H1792; first compound 0.1 µM): 0.51
- relative viability (NCI-H1792; first compound 0.3162 µM): 0.766
- relative viability (NCI-H1792; first compound 1 µM): 0.563
- relative viability (LXF-289; first compound 0.01 µM): 1.07
- relative viability (LXF-289; first compound 0.03162 µM): 1.06
- relative viability (LXF-289; first compound 0.1 µM): 1.19
- relative viability (LXF-289; first compound 0.3162 µM): 1.02
- relative viability (LXF-289; first compound 1 µM): 0.971
